According to US20080182978A1, “ANTI-NGF ANTIBODIES AND METHODS USING SAME” (RINAT NEUROSCIENCE CORP, priority 2002, published 2008):

B1: E3: humanized, affinity matured anti-NGF antagonist antibody; variable regions SEQ ID NO:1 and 2; human IgG2a (A330P331 to S330S331), kappa (antibody, V domains shown)
VH: QVQLQESGPGLVKPSETLSLTCTVSGFSLIGYDLNWIRQPPGKGLEWIGIIWGDGTTDYNSAVKSRVTISKDTSKNQFSLKLSSVTAADTAVYYCARGGYWYATSYYFDYWGQGTLVTVS
VL: DIQMTQSPSSLSASVGDRVTITCRASQSISNNLNWYQQKPGKAPKLLIYYTSRFHSGVPSRFSGSGSGTDFTFTISSLQPEDIATYYCQQEHTLPYTFGQGTKLEIKRT
modifications: human IgG2a constant (A330S/P331S) and kappa constant missing

Columns and labels:
[1] = test system: IL-6, IL-1β, TNF-α and TGF-β1; assay: CFA arthritis rats, paw cytokine levels (ELISA); format: in vivo, rat; settings: D24; for left paw IL-1β level / left paw IL-6 level / left paw TGF-β1 level / left paw TNF-α level / right paw IL-1β level / right paw IL-6 level / right paw TGF-β1 level / right paw TNF-α level: arthritic rats, E3 1 mg/kg or 911 10 mg/kg i.v. D14+D19, indomethacin 3 mg/kg p.o.
Experimental: On Day 24 (5 days after the last i.v. bolus injection or 24 hours after the last p.o. administration) (after X-rays radiographies), each animal hindpaw (arthritic and non arthritic rats) was weighed and was collected in a labelled polyethylene vial. Tissue samples were frozen in liquid nitrogen and stored at −80° C.
Preparation of Joint Homogenates: Frozen Hind Paws were Pulverized Using a Bio-Pulverizer. The powdered hind paws were then placed into a 50 ml conical centrifuge tube containing 3 ml PBS supplemented with 50 μl of anti-protease cocktail and homogenized on ice using Ultra-Turrax homogenizer (50% of the maximal speed). Homogenates were then centrifuged at 2000×g for 15 minutes at 4° C. and supernatants were filtered through 0.2 μm Sartorius filters, aliquoted and stored at −80° C. until use.
Cytokine levels measurement: Cytokine levels of TNF-α (Rat TNF-a ELISA kit, ref. RTA00, Batch 213718, R&D Systems, France), IL-1 Rat […] ELISA kit, ref. RLB00, Batch 212435, R&D Systems, France), IL-6 Rat IL-6 ELISA kit, ref. R6000, Batch 211773, 214008 and 214362, R&D Systems, France), and TGF-β1 Human TGF-β1 ELISA kit, ref. DB100, Batch 212258 and 213610, R&D Systems, France) were determined in duplicate, according to the manufacturer's procedure. Aliquots of hind paw homogenates were stored at −80° C.
(§1) All results were reported as Mean ±S.E.M. of 10 rats in each group at each time point. Paw volume was expressed in ml calculated from the mean value of the right and left paw volume. Arthritis index was calculated from the sum of the score obtained for each of the 4 paws. The nociceptive response was evaluated by the intensity of the level of vocalization recorded for each animal (mean of 4 values: 2 times/paw) in mV. The percentage inhibition of the nociceptive response was calculated from the mean value of the vehicle-treated arthritic group [(mean value of vehicle-treated arthritic group−mean value of treated arthritic group/mean value of vehicle-treated arthritic group)*100]. Body weight was expressed in grams. Hindpaws (left and right) weight was expressed in grams. Cytokine levels (IL-6, IL-1β, TNF-α and TGF-β1) of each hind paw was expressed in pg/ml. Circulating levels of TGF-β1 was expressed in pg/ml. Radiological index for each parameter (demineralization, erosions, periostal reaction, soft tissue damage, space joint, osteogenesis deformity) and total radiological index (total score) were calculated from the sum of the scores obtained for each parameter. The inter-group significances of the deviations between the values of vehicle-treated group (arthritic rats) and vehicle-treated group (non arthritic rats) were assessed by the Student t test or Mann-Whitney Rank Sum Test when equal variance or normality test failed. The inter-group significances of the deviations between the values of vehicle-treated group (arthritic rats) and E3- and 911- and Indomethacin-treated groups were assessed by the 1-way analysis of variance ANOVA followed by the non-paired Dunnett t test. A probability of P<0.05 was considered as significant. All statistical analysis was performed by the Sigmastat™ software.

[2] = CFA arthritis rats, body weight (Example 8); format: in vivo, rat; settings: for body weight: arthritic rats
Experimental: Five groups of 10 animals (5-weeks old male Lewis rats-LEWIS Lew/Ico, from Charles River Laboratories—Belgium) each were included in this study: Group 1: non arthritic rats/saline (vehicle), i.v. bolus, n=10; Group 2: arthritic rats/saline (vehicle), i.v. bolus, n=10; Group 3: arthritic rats/Indomethacin 3 mg/kg, p.o daily over 10 days, n=10; Group 4: arthritic rats/E3, 1 mg/kg, i.v. bolus, n=10; Group 5: arthritic rats/911, 10 mg/kg, i.v. bolus, n=10. The doses were expressed in terms of free active substance (mg/kg). E3 and 911 were extemporaneously prepared in saline from the stock solution to the desired concentration. E3 1 mg/kg: 3.41 mL of the stock solution (0.88 mg/ml) q.s.p. 15 mL of saline. 911 10 mg/kg: 12 mL of the stock solution (2.5 mg/ml) q.s.p. 15 mL of saline. All diluted solutions (before i.v. injection) were sterilized using a sterile filter unit of 0.20.μm. pH and osmolarity values of diluted solutions were measured before each i.v. injection. Before the first i.v., osmolarity (mosm/L) for saline, E3, and 911 were 278, 269, and 308 respectively; pH for saline, E3, and 911 were 5.93, 6.76, 6.71 respectively. Before the second i.v., osmolarity (mosm/L) for saline, E3, and 911 were 280, 270, and 309 respectively; pH for saline, E3, and 911 were 5.86, 6.72, and 6.59 respectively.
E3 or 911 or saline were administered by i.v. bolus injection on Day 14 and Day 19 after arthritis induction in a coded and random order with a volume of 5 mL/kg. The non arthritic group was given by i.v. bolus injection of saline on Day 14 and Day 19 with a volume of 5 mL/kg. Indomethacin was extemporaneously prepared in 1% methylcellulose. Indomethacin was administered by oral route (p.o.) once daily over 10 days from Day 14 to Day 23 after arthritis induction in a coded and random order with a volume of 10 mL/kg.
The animals were weighed once daily from Day 0 to Day 24 (except during the week-end days before the treatment: D 1, D 2, D 8, D 9, D 10). All measurements were performed between 9:00 and 12:00 am except at D 14 (7:30-9:00 am) and D 24 (7:30-8:00 am).
as §1

[3] = E3 1 mg/kg or 911 10 mg/kg i.v. D14+D19, indomethacin 3 mg/kg/day p.o., D24
[4] = before treatment (dosing starts D14), D3
[5] = before treatment (dosing starts D14), D4
[6] = before treatment (dosing starts D14), D5
[7] = before treatment (dosing starts D14), D6
[8] = before treatment (dosing starts D14), D7
[9] = before treatment (dosing starts D14), D11
[10] = before treatment (dosing starts D14), D12
[11] = before treatment (dosing starts D14), D13
[12] = group later given E3 1 mg/kg or 911 10 mg/kg i.v. D14+D19 or indomethacin 3 mg/kg/day p.o., D0
[13] = D14 (selection day, first dosing)
[14] = E3 1 mg/kg or 911 10 mg/kg i.v. D14+D19, indomethacin 3 mg/kg/day p.o., D15
[15] = E3 1 mg/kg or 911 10 mg/kg i.v. D14+D19, indomethacin 3 mg/kg/day p.o., D16
[16] = E3 1 mg/kg or 911 10 mg/kg i.v. D14+D19, indomethacin 3 mg/kg/day p.o., D17
[17] = E3 1 mg/kg or 911 10 mg/kg i.v. D14+D19, indomethacin 3 mg/kg/day p.o., D18
[18] = E3 1 mg/kg or 911 10 mg/kg i.v. D14+D19, indomethacin 3 mg/kg/day p.o., D19
[19] = E3 1 mg/kg or 911 10 mg/kg i.v. D14+D19, indomethacin 3 mg/kg/day p.o., D20
[20] = E3 1 mg/kg or 911 10 mg/kg i.v. D14+D19, indomethacin 3 mg/kg/day p.o., D21
[21] = E3 1 mg/kg or 911 10 mg/kg i.v. D14+D19, indomethacin 3 mg/kg/day p.o., D22
[22] = E3 1 mg/kg or 911 10 mg/kg i.v. D14+D19, indomethacin 3 mg/kg/day p.o., D23

| Molecule | left paw IL-1β level [1] | left paw IL-6 level [1] | left paw TGF-β1 level [1] | left paw TNF-α level [1] | right paw IL-1β level [1] | right paw IL-6 level [1] | right paw TGF-β1 level [1] | right paw TNF-α level [1] | maximum body weight increase compared to vehicle-treated arthritic group [2, 3] | body weight [2, 4] | body weight [2, 5] | body weight [2, 6] | body weight [2, 7] | body weight [2, 8] | body weight [2, 9] | body weight [2, 10] | body weight [2, 11] | body weight [2, 12] | body weight [2, 13] | body weight [2, 14] | also measured |
| --- | --- | --- | --- | --- | --- | --- | --- | --- | --- | --- | --- | --- | --- | --- | --- | --- | --- | --- | --- | --- | --- |
| COc1ccc2c(c1)c(CC(=O)O)c(C)n2C(=O)c1ccc(Cl)cc1 [Indomethacin, reference compound] | 4029.1 ± 449.9 pg/mL | 249.7 ± 60.4 pg/mL | 7708.2 ± 293.9 pg/mL | 29.9 ± 3.6 pg/mL | 3884.4 ± 534.4 pg/mL | 295.9 ± 47.8 pg/mL | 7057.4 ± 335.6 pg/mL | 30.6 ± 5.7 pg/mL | about 43 g | 217 ± 4 grams | 225 ± 4 grams | 235 ± 4 grams | 239 ± 4 grams | 246 ± 4 grams | 242 ± 7 grams | 235 ± 7 grams | 227 ± 6 grams | 202 ± 3 grams | 224 ± 5 grams | 230 ± 4 grams | decrease of TGF-β1 level in right paw compared to vehicle-treated arthritic group ([1]; indomethacin 3 mg/kg/day p.o. 10 days): about 1.3 times; body weight [2, 15]: 230 ± 5 grams; body weight [2, 16]: 231 ± 4 grams; body weight [2, 17]: 234 ± 4 grams; body weight [2, 18]: 236 ± 4 grams; body weight [2, 19]: 241 ± 4 grams; body weight [2, 20]: 246 ± 4 grams; body weight [2, 21]: 248 ± 5 grams; body weight [2, 22]: 253 ± 5 grams; body weight [2, 3]: 261±5 grams |
| B1 | 5060.0 ± 473.5 pg/mL | 234.4 ± 35.2 pg/mL | 9796.7 ± 491.2 pg/mL | 23.6 ± 2.5 pg/mL | 4853.5 ± 605.0 pg/mL | 214.6 ± 47.2 pg/mL | 9362.7 ± 423.4 pg/mL | 21.5 ± 2.5 pg/mL | about 46 g | 222 ± 3 grams | 230 ± 3 grams | 241 ± 3 grams | 243 ± 3 grams | 249 ± 3 grams | 242 ± 6 grams | 237 ± 6 grams | 230 ± 5 grams | 206 ± 4 grams | 225 ± 5 grams | 223 ± 5 grams | effect on IL-6, IL-1β, TNF-α or TGF-β1 levels in both paws vs vehicle-treated arthritic group ([1]; 1 mg/kg i.v. on D14 and D19): did not affect; body weight [2, 15]: 224 ± 5 grams; body weight [2, 16]: 227 ± 4 grams; body weight [2, 17]: 232 ± 4 grams; body weight [2, 18]: 235 ± 4 grams; body weight [2, 19]: 238 ± 4 grams; body weight [2, 20]: 245 ± 4 grams; body weight [2, 21]: 250 ± 5 grams; body weight [2, 22]: 257 ± 5 grams; body weight [2, 3]: 264±5 grams |
